Experimental findings from publication PMC9380551 (Antimicrobial Agents and Chemotherapy, 2022) are described below.

The structures appear in SMILES notation.

The test concerns SARS-CoV-2 Wuhan reference strain. Type of test: cell-based.

Turning to `CCC(CC)COC(=O)[C@H](C)N[P@](=O)(OC[C@H]1O[C@@](C#N)(c2ccc3c(N)ncnn23)[C@H](O)[C@@H]1O)Oc1ccccc1` [remdesivir], the “comparative efficiency in inhibiting SARS-CoV-2 replication” value is on record as “the most efficient molecule”. Regarding `CC(C)c1nc(CN(C)C(=O)N[C@H](C(=O)N[C@@H](Cc2ccccc2)C[C@H](O)[C@H](Cc2ccccc2)NC(=O)OCc2cncs2)C(C)C)cs1` [ritonavir], the “comparative efficiency in inhibiting SARS-CoV-2 replication” value was “AB-00011778 was more efficient than the ritonavir molecule”.
